What was measured:
[1] = Physical stability of drug substance crystals at 40° C./75% RH (HPLC degradant, XRD/TG transformation); assay type: physicochemical; conditions: for Transformation of crystal form on storage: 40° C./75% RH, storage for three months
Procedure: Each of the drug substances (crystals A, B, C, D, E and G) of 2-(3-cyano-4-isobutyloxyphenyl)-4-methyl-5-thiazolecarboxylic acid was tested in bottles with and without closure under the conditions of 40° C./75% RH. Any degradant was detected by a HPLC. Their transformation was detected by an X-ray powder diffraction pattern and by a thermal mass measurement method, and the 50% transform time was determined. There was no degradant for all of the six crystal forms.
For the above HPLC, Model 2690 produced by Waters was adopted, using an ODS column with a measured wave length of 217 nm at a predetermined temperature around 40° C.
For the above X-ray powder diffraction, Model XRD-6000 of Shimadzu Corp. was used.
For the above heat mass measurement, Model TGA7, Pyris1 produced by Perkin Elmer was used at a temperature rising speed of 40° C./min.

[2] = Intrinsic dissolution rate (USP 24 <1087>); assay type: physicochemical; conditions: pellets, second fluid of the disintegration test of Japanese Pharmacopoeia, 50 rpm
Procedure: The dissolution rate was measured according to USP 24, <1087>Intrinsic Dissolution. Specifically, the measurement was carried out as follows:
50 mg each of crystals powdered lightly in an agate mortar was set between plates, and a pressure of 754 kgf/cm^2 was applied thereto for one minute to produce pellets. As the testing solution, 900 mL of the second fluid of the disintegration test of Japanese Pharmacopoeia was used and the test was carried out at 50 rpm using the dissolution apparatus produced by Vankel. Subsequently, the testing liquid was filtered through a filter and the resultant, used as the sample solution, was tested with respect to a standard solution by a spectrophotometry (wavelength of 317 nm). The results are shown in Table 2, in which the order of the dissolution rate of the six crystals is as follows: E>A>B>D>G>C.

[3] = as described in WO99/65885; cited from earlier work
[4] = Pulverized particle size by image analysis; assay type: physicochemical
Procedure: Plain tablets were prepared by the method same as that of Example 1 except that particles (Particles 1˜4) shown in Table 7, with crystal A and with four different kinds of average particle sizes, were used as 2-(3-cyano-4-isobutyloxyphenyl)-4-methyl-5-thiazolecarboxylic acid. The obtained plain tablets were coated with coating liquid comprising purified water, polyethylene glycol and hydroxypropylmethyl cellulose by a coating machine (High Coater HCT-30, Freund Ind.).

xanthine oxidase = xanthine oxidase (Homo sapiens, UniProt P47989); conditions: as described in WO92/09279; cited from earlier work
Sequence of xanthine oxidase (P47989 whole entry, species assumed): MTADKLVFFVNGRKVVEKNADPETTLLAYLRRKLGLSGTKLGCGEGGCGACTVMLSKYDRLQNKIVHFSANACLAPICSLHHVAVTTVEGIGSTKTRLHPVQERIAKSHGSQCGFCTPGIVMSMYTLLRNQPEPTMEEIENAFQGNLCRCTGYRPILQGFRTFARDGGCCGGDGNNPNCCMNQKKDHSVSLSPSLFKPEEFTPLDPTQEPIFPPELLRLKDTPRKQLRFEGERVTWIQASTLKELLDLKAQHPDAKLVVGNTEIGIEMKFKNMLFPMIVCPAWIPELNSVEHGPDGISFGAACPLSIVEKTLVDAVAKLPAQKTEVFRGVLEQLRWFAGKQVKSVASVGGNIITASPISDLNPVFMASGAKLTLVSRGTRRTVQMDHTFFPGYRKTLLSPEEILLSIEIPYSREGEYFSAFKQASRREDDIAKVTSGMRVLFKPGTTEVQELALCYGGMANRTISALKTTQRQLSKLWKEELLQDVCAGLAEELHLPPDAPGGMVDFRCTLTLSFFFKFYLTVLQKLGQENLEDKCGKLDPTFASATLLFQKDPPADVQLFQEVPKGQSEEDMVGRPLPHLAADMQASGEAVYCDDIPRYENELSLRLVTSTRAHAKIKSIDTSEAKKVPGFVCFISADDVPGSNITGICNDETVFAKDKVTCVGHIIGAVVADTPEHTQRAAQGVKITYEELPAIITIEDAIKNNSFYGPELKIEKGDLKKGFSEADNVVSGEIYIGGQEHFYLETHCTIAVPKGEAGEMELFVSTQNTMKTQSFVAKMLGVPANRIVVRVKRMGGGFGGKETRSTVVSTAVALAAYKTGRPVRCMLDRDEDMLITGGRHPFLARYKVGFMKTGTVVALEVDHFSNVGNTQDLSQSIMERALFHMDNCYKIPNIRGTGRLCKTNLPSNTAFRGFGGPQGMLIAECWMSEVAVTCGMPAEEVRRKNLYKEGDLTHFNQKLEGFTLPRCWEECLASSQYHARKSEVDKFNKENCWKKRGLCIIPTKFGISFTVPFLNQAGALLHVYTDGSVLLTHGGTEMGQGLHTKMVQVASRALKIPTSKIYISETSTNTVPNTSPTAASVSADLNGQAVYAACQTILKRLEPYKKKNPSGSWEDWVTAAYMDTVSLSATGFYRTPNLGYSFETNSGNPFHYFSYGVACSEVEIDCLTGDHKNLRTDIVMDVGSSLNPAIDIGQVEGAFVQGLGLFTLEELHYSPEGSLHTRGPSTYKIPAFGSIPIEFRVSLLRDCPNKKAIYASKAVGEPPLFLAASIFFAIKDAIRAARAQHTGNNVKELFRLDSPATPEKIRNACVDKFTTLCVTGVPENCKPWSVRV

[5] = 40° C./75% RH with closure, analysis XRD or TG
[6] = 40° C./75% RH without closure, analysis XRD or TG

Row | Structure (SMILES) | 50% Transform time [1, 5] | 50% Transform time [1, 6] | Intrinsic rate [2] [mg/cm^2/min] | Pulverized particle size, 95% cumulative diameter [4] [μm] | Pulverized particle size, average particle diameter [4] [μm] | 50% Transform time ([1]; 40° C./75% RH without closure, analysis XRD) [days] | Transformation of crystal form on storage [1] | Retention of a crystal form in long term storage [3] | Activity for inhibiting xanthine oxidase (xanthine oxidase)
1 | Cc1nc(-c2ccc(OCC(C)C)c(C#N)c2)sc1C(=O)O [Crystal G, 2-(3-cyano-4-isobutyloxyphenyl)-4-methyl-5-thiazolecarboxylic acid] | (Not changed) | (Not changed) | 0.0967 | – | – | – | stable | useful in view of retention of a crystal form in long term storage | –
2 | Cc1nc(-c2ccc(OCC(C)C)c(C#N)c2)sc1C(=O)O [Particle 2, 2-(3-cyano-4-isobutyloxyphenyl)-4-methyl-5-thiazolecarboxylic acid] | – | – | – | 29.5 | 12.9 | – | – | – | –
3 | Cc1nc(-c2ccc(OCC(C)C)c(C#N)c2)sc1C(=O)O [Particle 1, 2-(3-cyano-4-isobutyloxyphenyl)-4-methyl-5-thiazolecarboxylic acid] | – | – | – | 5.6 | 3.5 | – | – | – | –
4 | Cc1nc(-c2ccc(OCC(C)C)c(C#N)c2)sc1C(=O)O [Crystal E, 2-(3-cyano-4-isobutyloxyphenyl)-4-methyl-5-thiazolecarboxylic acid] | 55 days | – | 0.1874 | – | – | 19 | transformation of crystals B, D and E was detected | – | –
5 | Cc1nc(-c2ccc(OCC(C)C)c(C#N)c2)sc1C(=O)O [Crystal D, 2-(3-cyano-4-isobutyloxyphenyl)-4-methyl-5-thiazolecarboxylic acid] | 17 days | 0.0104 days | 0.1092 | – | – | – | transformation of crystals B, D and E was detected | – | –
6 | Cc1nc(-c2ccc(OCC(C)C)c(C#N)c2)sc1C(=O)O [2-(3-cyano-4-isobutyloxyphenyl)-4-methyl-5-thiazolecarboxylic acid] | – | – | – | – | – | – | – | – | strong activity

Continued, in another order:

Row | 50% Transform time [1, 5] | 50% Transform time [1, 6] | Intrinsic rate [2] [mg/cm^2/min] | Pulverized particle size, 95% cumulative diameter [4] [μm] | Pulverized particle size, average particle diameter [4] [μm] | 50% Transform time ([1]; 40° C./75% RH without closure, analysis XRD) [days] | Structure (SMILES) | Transformation of crystal form on storage [1] | Retention of a crystal form in long term storage [3] | Activity for inhibiting xanthine oxidase (xanthine oxidase)
7 | (Not changed) | (Not changed) | 0.1434 | – | – | – | Cc1nc(-c2ccc(OCC(C)C)c(C#N)c2)sc1C(=O)O [Crystal A, 2-(3-cyano-4-isobutyloxyphenyl)-4-methyl-5-thiazolecarboxylic acid] | stable | useful in view of retention of a crystal form in long term storage | –
8 | (Not changed) | (Not changed) | 0.0694 | – | – | – | Cc1nc(-c2ccc(OCC(C)C)c(C#N)c2)sc1C(=O)O [Crystal C, 2-(3-cyano-4-isobutyloxyphenyl)-4-methyl-5-thiazolecarboxylic acid] | stable | useful in view of retention of a crystal form in long term storage | –
9 | – | – | – | 74.7 | 26.2 | – | Cc1nc(-c2ccc(OCC(C)C)c(C#N)c2)sc1C(=O)O [Particle 3, 2-(3-cyano-4-isobutyloxyphenyl)-4-methyl-5-thiazolecarboxylic acid] | – | – | –
10 | 5 days | 0.583 days | 0.1242 | – | – | – | Cc1nc(-c2ccc(OCC(C)C)c(C#N)c2)sc1C(=O)O [Crystal B, 2-(3-cyano-4-isobutyloxyphenyl)-4-methyl-5-thiazolecarboxylic acid] | transformation of crystals B, D and E was detected | – | –
11 | – | – | – | 140.8 | 48.6 | – | Cc1nc(-c2ccc(OCC(C)C)c(C#N)c2)sc1C(=O)O [Particle 4, 2-(3-cyano-4-isobutyloxyphenyl)-4-methyl-5-thiazolecarboxylic acid] | – | – | –

Reference: patent US7361676B2, “Solid preparation containing single crystal form” (Teijin Limited, priority 2002, dated 2008)
